# Experimental data reported in patent publication US6221858A, “Pyridyl-and pyrimidyl-piperazines in the treatment of substance abuse disorders” (priority 1996, dated 2001).
# Counter-ions that a name gives are not always drawn. Like-named read-outs stand apart in the source and are kept apart here.
# Experiments:
# 5-HT1A Sites = molecular target: T1, 5-HT1A Sites (Rattus norvegicus, UniProt P19327); test: biochemical; assay type: binding
# T1 sequence (P19327 1-422): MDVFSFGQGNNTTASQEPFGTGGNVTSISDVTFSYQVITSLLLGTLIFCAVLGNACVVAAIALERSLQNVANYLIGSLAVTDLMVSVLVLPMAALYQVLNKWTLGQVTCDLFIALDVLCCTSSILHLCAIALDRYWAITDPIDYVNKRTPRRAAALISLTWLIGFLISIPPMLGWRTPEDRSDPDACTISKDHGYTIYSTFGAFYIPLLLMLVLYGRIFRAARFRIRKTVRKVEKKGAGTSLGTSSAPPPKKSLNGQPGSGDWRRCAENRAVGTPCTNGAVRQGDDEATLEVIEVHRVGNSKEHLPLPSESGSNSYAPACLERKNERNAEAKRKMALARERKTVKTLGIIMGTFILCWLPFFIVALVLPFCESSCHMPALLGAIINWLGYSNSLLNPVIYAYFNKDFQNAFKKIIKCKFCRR
# 5-HT2A Sites = molecular target: T2, 5-HT2A Sites (Rattus norvegicus, UniProt P14842); test: Drug affinity for 5-HT2A sites (3H-Ketanserin binding, cerebral cortex); settings: Radioligand 3H-Ketanserin; tissue cerebral cortex
# T2 construct: Radioligand: ^3 H-Ketanserin Tissue: Cerebral cortex; from tissue; host or cells: cerebral cortex
# T2 sequence (P14842 whole entry): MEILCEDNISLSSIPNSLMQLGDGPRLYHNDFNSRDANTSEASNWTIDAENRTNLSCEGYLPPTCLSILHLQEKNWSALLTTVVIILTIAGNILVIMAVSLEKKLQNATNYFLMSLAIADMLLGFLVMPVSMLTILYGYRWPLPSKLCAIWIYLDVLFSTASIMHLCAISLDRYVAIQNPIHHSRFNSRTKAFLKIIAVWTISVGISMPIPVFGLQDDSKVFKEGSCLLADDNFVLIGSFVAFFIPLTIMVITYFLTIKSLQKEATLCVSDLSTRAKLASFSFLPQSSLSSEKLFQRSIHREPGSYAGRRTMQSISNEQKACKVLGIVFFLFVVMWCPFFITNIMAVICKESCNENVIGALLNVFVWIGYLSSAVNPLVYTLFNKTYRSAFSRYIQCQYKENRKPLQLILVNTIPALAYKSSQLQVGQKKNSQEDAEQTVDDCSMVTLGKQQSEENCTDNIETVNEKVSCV
# [1] = molecular target: T3, [3H]-5-HT uptake by synaptosomes from rat frontal cortex (Rattus norvegicus, UniProt P31652); test: Uptake of [3H]-5-HT by synaptosomes from rat frontal cortex; assay type: biochemical
# T3 construct: synaptosomes from rat frontal cortex; from tissue; host or cells: rat frontal cortex synaptosomes
# T3 sequence (P31652 whole entry): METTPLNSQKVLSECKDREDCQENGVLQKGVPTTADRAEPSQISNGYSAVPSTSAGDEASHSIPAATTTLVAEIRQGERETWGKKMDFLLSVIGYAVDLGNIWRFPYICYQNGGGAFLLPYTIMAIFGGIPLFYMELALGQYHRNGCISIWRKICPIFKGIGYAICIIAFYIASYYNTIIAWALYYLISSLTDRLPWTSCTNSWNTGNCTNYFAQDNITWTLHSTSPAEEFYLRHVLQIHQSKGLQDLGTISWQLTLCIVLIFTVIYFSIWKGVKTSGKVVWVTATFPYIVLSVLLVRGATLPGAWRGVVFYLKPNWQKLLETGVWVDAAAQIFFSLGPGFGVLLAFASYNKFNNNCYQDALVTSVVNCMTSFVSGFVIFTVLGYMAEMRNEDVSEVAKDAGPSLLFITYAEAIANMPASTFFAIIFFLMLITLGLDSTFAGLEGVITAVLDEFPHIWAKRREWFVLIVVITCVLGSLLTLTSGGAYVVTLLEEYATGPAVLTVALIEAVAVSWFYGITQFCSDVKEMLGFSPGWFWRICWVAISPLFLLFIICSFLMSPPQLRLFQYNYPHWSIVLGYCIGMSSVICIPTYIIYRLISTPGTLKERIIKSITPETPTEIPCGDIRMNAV
# rats = settings: cited from earlier work
# [2] = tested on: alcohol-dependent individuals; settings: compared to placebo; cited from earlier work
# monkeys = settings: cited from earlier work
# [3] = tested on: alcohol preferring (P) rats; test: Effect on alcohol intake in alcohol preferring (P) rats; assay type: in vivo, rat
# Protocol: To further illustrate the useful pharmacological properties of compounds of formula (I), the effect of Compound A administered systematically was determined in alcohol preferring (P) rats. Because of its pattern of drinking, the P animal seems to represent a valid genetically based model to approximate the human condition of alcoholism (McBride et al., Alcohol 7:199-205, 1990; Lankford et al., Pharmacol. Biochem. Behav. 8:293-299,1991). After maximally preferred alcohol concentrations had stabilised for four days, Compound A in a dose of 2.5 and 10 mg/kg was administered twice a day over four consecutive days. […] The highest dose of Compound A reduced intake of alcohol by >40%.
# [4] = Radioligand 3H-8-OH-DPAT, tissue hippocampus
structure (smiles),measurement,setting,value
"CCNC(=O)N1CCN(CCCC(c2ccc(F)cc2)c2ccc(F)cc2)CC1 [Amperozide, reference compound]",Ki,5-HT1A Sites,0.805 µM
same,Ki,5-HT2A Sites,0.016 µM
same,IC50,[1],0.32 µM
same,Intake of alcohol,rats,significantly attenuate
O=C1CC2(CCCC2)CC(=O)N1CCCCN1CCN(c2ncccn2)CC1 [Buspirone],Drop-out rate,[2],lower drop-out rate
same,Signs of craving,[2],fewer signs of craving
same,Consumption of alcohol,monkeys,attenuate significantly
"Cc1cccc(N2CCN(CCCCc3ccc(F)cc3)CC2)n1.O=C(O)/C=C/C(=O)O [Compound A, 1-[4-(p-fluorophenyl)-butyl]-4-(6-methyl-2-pyridinyl)-piperazine fumarate]",Ki,5-HT1A Sites; [4],0.0009 µM
same,Ki,5-HT2A Sites,0.01 µM
same,IC50,[1],12 µM
same,Food and water after injections,[3]; after Compound A injections,returned to pre-drug levels
same,Intake of alcohol (absolute g/kg and proportion of alcohol to total fluid intake),"[3]; both doses, 2.5 and 10 mg/kg twice a day over four days, during administration",significantly reduced
same,Ingestion of food and water,"[3]; each dose, during the period of injection",increased the ingestion of food and water above pre-treatment levels
same,Alcohol intakes after administration versus pre-treatment level,"[3]; five days following administration, intakes rebounded",still being significantly lower than those of the pre-treatment level
same,Reduction of intake of alcohol,[3]; highest dose (10 mg/kg) twice a day over four consecutive days,> 40%
"CCOc1cccnc1N1CCN(CCCCc2ccc(F)cc2)CC1 [Compound B, 1-[4-(p-fluorophenyl)-butyl]-4-(3-ethoxy-2-pyridinyl)-piperazine fumarate]",Ki,5-HT1A Sites; [4],0.0017 µM
same,Ki,5-HT2A Sites,0.0016 µM
"COC(=O)c1cccnc1N1CCN(CCCC(c2ccc(F)cc2)c2ccc(F)cc2)CC1 [FG5893, 2-[4-[4,4-bis(4-fluorophenyl)butyl]-1-piperazinyl]-3-pyridine-carboxylic acid methyl ester dihydrochloride ethylat, reference compound]",Ki,5-HT1A Sites; [4],0.0007 µM
same,IC50,"[1]; synaptosomes from rat frontal cortex, concentration which inhibits the uptake by 50%, read-out: IC50, uptake of [3H]-5-HT",0.08 µM
